What was measured:
[1] = biological target: human Bruton's Tyrosine Kinase (Btk) (Homo sapiens (Human), UniProt Q06187); assay: Recombinant Human Bruton's Tyrosine Kinase (Btk) Inhibition Assay (HTRF KinEASE-TK); format: biochemical; details: 20 ng/ml rhBtk, 77 μM ATP (KM), 1 μM TK-Biotin substrate, 90 min; read-out: hBTK IC50
[2] = tested on: mouse splenocytes; assay: Inhibition of B Cell Activation as Measured by CD69 Expression in Mouse Splenocytes; format: cell-based; details: Splenocyte; C57/BL6 splenocytes, 3 ug/mL goat anti-mouse IgM, 18-20 hrs, CD69+ve cells within CD19; read-out: Mouse spleenocyte IC50
Description: Inhibition of B Cell Activation as Measured by CD69 Expression in Mouse Splenocytes:
To test the effect of BTK inhibitors in suppressing B-cell receptor (BCR) mediated activation of B cells, we developed a flow cytometry based assay to analyze CD69 expression in B cell population among total splenocyte from the mouse. […] Finally, cell were cultured in RPMI medium with 10% FBS.
Test compounds were diluted half log starting from 2 mM in 100% DMSO (200×). 1×10^5 splenocytes were incubated with 1 uL of diluted test compounds in 200 uL culture medium in a U-bottom 96 well plate (Greiner) at 37° C. with 5% CO2 for 30 mins. Control wells received 1 uL of 100% DMSO without any compound. The cells were stimulated with 3 ug/mL goat anti-mouse IgM (Sigma, cat#M8644) and incubated for 18-20 hrs. […] Then the cells were washed 3 times with PBS with 1% FBS and analyzed by Guava Easycyte Mini flow cytometer system (Millipore). Flow cytometry data were analyzed using Weasel software (WEHI, Melbourne). First B cells were gated using CD19 markers. Then expression of CD69 was analyzed as percentage of CD69+ve cells within CD19. Percent activity for each data point was calculated using following formula: […]
Percentage activity was fit using sigmoid dose response with variable slope logistic equation in Graph-pad Prism 5 software to determine inhibition constant 50 (IC50).

Chain of human Bruton's Tyrosine Kinase (Btk) (Q06187 whole entry): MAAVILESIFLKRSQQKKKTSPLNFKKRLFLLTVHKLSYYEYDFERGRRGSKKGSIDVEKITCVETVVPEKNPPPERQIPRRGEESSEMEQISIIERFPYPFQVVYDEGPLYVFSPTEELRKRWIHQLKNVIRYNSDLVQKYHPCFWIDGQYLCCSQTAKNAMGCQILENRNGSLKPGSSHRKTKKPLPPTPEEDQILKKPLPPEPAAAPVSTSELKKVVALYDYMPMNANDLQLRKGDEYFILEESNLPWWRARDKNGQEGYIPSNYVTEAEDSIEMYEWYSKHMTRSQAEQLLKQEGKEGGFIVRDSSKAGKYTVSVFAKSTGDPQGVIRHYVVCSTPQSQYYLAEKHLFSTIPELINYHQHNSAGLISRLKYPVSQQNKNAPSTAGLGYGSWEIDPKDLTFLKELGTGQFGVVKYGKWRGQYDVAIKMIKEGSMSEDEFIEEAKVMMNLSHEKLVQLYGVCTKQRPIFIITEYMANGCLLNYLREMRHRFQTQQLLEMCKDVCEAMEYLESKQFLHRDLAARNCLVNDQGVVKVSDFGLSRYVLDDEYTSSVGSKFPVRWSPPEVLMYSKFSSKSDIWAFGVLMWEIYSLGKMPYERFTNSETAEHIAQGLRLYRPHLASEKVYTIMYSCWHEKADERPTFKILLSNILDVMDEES

| Structure (SMILES) | IC50 [1] [µM] | IC50 [2] [µM] |
| --- | --- | --- |
| CC(C)N1CCN(Cc2ccc(-c3cc4c(-c5cccc(N6CCOc7cc(C8CC8)ccc7C6=O)c5CO)ccnc4[nH]3)nc2)CC1 [Example I-7, 8-cyclopropyl-4-[2-(hydroxymethyl)-3-[2-[5-[(4-isopropylpiperazin-1-yl)methyl]-2-pyridyl]-1H-pyrrolo[2,3-b]pyridin-4-yl]phenyl]-2,3-dihydro-1,4-benzoxazepin-5-one] | 0.002 | 0.021 |
| O=C1c2ccc(C3CC3)cc2OCCN1c1cccc(-c2ccnc3[nH]c(-c4ccc(CN5CCS(=O)(=O)CC5)cn4)cc23)c1CO [Example I-8, 8-cyclopropyl-4-[3-[2-[5-[(1,1-dioxo-1,4-thiazinan-4-yl)methyl]-2-pyridyl]-1H-pyrrolo[2,3-b]pyridin-4-yl]-2-(hydroxymethyl)phenyl]-2,3-dihydro-1,4-benzoxazepin-5-one] | 0.009 | 0.085 |
| O=C1c2ccc(C3CC3)cc2OCCN1c1cccc(-c2ccnc3[nH]c(-c4ccc(CN5CCN(CC(F)(F)F)CC5)cn4)cc23)c1CO [Example I-9, 8-cyclopropyl-4-[2-(hydroxymethyl)-3-[2-[5-[[4-(2,2,2-trifluoroethyl)piperazin-1-yl]methyl]-2-pyridyl]-1H-pyrrolo[2,3-b]pyridin-4-yl]phenyl]-2,3-dihydro-1,4-benzoxazepin-5-one] | 0.008 | 0.047 |
| O=C1c2ccc(C3CC3)cc2OCCN1c1cccc(-c2ccnc3[nH]c(-c4ccc(CN5CCN(S(=O)(=O)C6CC6)CC5)cn4)cc23)c1CO [Example I-10, 8-cyclopropyl-4-[3-[2-[5-[(4-cyclopropylsulfonylpiperazin-1-yl)methyl]-2-pyridyl]-1H-pyrrolo[2,3-b]pyridin-4-yl]-2-(hydroxymethyl)phenyl]-2,3-dihydro-1,4-benzoxazepin-5-one] | 0.007 | 0.031 |
| CCN1CCN(Cc2ccc(-c3cc4c(-c5cccc(N6CCOc7cc(C8CC8)cc(F)c7C6=O)c5CO)ccnc4[nH]3)nc2)CC1 [Example I-12, 8-cyclopropyl-4-[3-[2-[5-[(4-ethylpiperazin-1-yl)methyl]-2-pyridyl]-1H-pyrrolo[2,3-b]pyridin-4-yl]-2-(hydroxymethyl)phenyl]-6-fluoro-2,3-dihydro-1,4-benzoxazepin-5-one] | 0.002 | 0.046 |
| O=C1c2c(F)cc(C3CC3)cc2OCCN1c1cccc(-c2ccnc3[nH]c(-c4ccc(CN5CCN(C6COC6)CC5)cn4)cc23)c1CO [Example I-13, 8-cyclopropyl-6-fluoro-4-[2-(hydroxymethyl)-3-[2-[5-[[4-(oxetan-3-yl)piperazin-1-yl]methyl]-2-pyridyl]-1H-pyrrolo[2,3-b]pyridin-4-yl]phenyl]-2,3-dihydro-1,4-benzoxazepin-5-one] | 0.002 | 0.008 |
| CC1CN(Cc2ccc(-c3cc4c(-c5cccc(N6CCOc7cc(C8CC8)cc(F)c7C6=O)c5CO)ccnc4[nH]3)nc2)CC(C)N1C (stereo not shown) [Example I-14, 8-cyclopropyl-6-fluoro-4-[2-(hydroxymethyl)-3-[2-[5-[(3,4,5-trimethylpiperazin-1-yl)methyl]-2-pyridyl]-1H-pyrrolo[2,3-b]pyridin-4-yl]phenyl]-2,3-dihydro-1,4-benzoxazepin-5-one] | 0.0017 | 0.0075 |
| CN1CCN(Cc2ccc(-c3cc4c(-c5cccc(N6CCOc7cc(C8CC8)cc(F)c7C6=O)c5CO)ccnc4[nH]3)nc2)CC1=O [Example I-15, 8-cyclopropyl-6-fluoro-4-[2-(hydroxymethyl)-3-[2-[5-[(4-methyl-3-oxo-piperazin-1-yl)methyl]-2-pyridyl]-1H-pyrrolo[2,3-b]pyridin-4-yl]phenyl]-2,3-dihydro-1,4-benzoxazepin-5-one] | 0.0015 | 0.018 |
| O=C1c2c(F)cc(C3CC3)cc2OCCN1c1cccc(-c2ccnc3[nH]c(-c4ccc(CN5CCN(CC(F)(F)F)CC5)cn4)cc23)c1CO [Example I-16, 8-cyclopropyl-6-fluoro-4-[2-(hydroxymethyl)-3-[2-[5-[[4-(2,2,2-trifluoroethyl)piperazin-1-yl]methyl]-2-pyridyl]-1H-pyrrolo[2,3-b]pyridin-4-yl]phenyl]-2,3-dihydro-1,4-benzoxazepin-5-one] | 0.0016 | 0.0077 |
| CN1CCC(F)(c2ccc(-c3cc4c(-c5cccc(N6CCOc7cc(C8CC8)ccc7C6=O)c5CO)ccnc4[nH]3)cc2)CC1 [Example J-1, 8-cyclopropyl-4-[3-[2-[4-(4-fluoro-1-methyl-4-piperidyl)phenyl]-1H-pyrrolo[2,3-b]pyridin-4-yl]-2-(hydroxymethyl)phenyl]-2,3-dihydro-1,4-benzoxazepin-5-one] | 0.009 | 0.179 |
| CN1CCCC(F)(c2ccc(-c3cc4c(-c5cccc(N6CCOc7cc(C8CC8)ccc7C6=O)c5CO)ccnc4[nH]3)cc2)C1 (stereo not shown) [Example J-2, 8-cyclopropyl-4-[3-[2-[4-(3-fluoro-1-methyl-3-piperidyl)phenyl]-1H-pyrrolo[2,3-b]pyridin-4-yl]-2-(hydroxymethyl)phenyl]-2,3-dihydro-1,4-benzoxazepin-5-one] | 0.0035 | 0.077 |
| Cc1c(-c2ncnc3[nH]c(-c4ccc(C(=O)N5CCN(C)CC5)cc4)cc23)cccc1N1CCOc2cc(C3CC3)ccc2C1=O [Example K-1, 8-cyclopropyl-4-[2-methyl-3-[6-[4-(4-methylpiperazine-1-carbonyl)phenyl]-7H-pyrrolo[2,3-d]pyrimidin-4-yl]phenyl]-2,3-dihydro-1,4-benzoxazepin-5-one] | 0.02 | 0.147 |
| Cc1c(-c2ncnc3[nH]c(-c4ccc(C(=O)N5CCC(O)CC5)cc4)cc23)cccc1N1CCOc2cc(C3CC3)ccc2C1=O [Example K-2, 8-cyclopropyl-4-[3-[6-[4-(4-hydroxypiperidine-1-carbonyl)phenyl]-7H-pyrrolo[2,3-d]pyrimidin-4-yl]-2-methyl-phenyl]-2,3-dihydro-1,4-benzoxazepin-5-one] | 0.032 | 0.815 |
| Cc1c(-c2ncnc3[nH]c(-c4ccc(C(=O)N5CCC(C)(O)CC5)cc4)cc23)cccc1N1CCOc2cc(C3CC3)ccc2C1=O [Example K-4, 8-cyclopropyl-4-[3-[6-[4-(4-hydroxy-4-methyl-piperidine-1-carbonyl)phenyl]-7H-pyrrolo[2,3-d]pyrimidin-4-yl]-2-methyl-phenyl]-2,3-dihydro-1,4-benzoxazepin-5-one] | 0.051 | 0.129 |
| Cc1c(-c2ncnc3[nH]c(-c4ccc(C(=O)N5CCNCC5)cc4)cc23)cccc1N1CCOc2cc(C3CC3)ccc2C1=O [Example K-6, 8-cyclopropyl-4-[2-methyl-3-[6-[4-(piperazine-1-carbonyl)phenyl]-7H-pyrrolo[2,3-d]pyrimidin-4-yl]phenyl]-2,3-dihydro-1,4-benzoxazepin-5-one] | 0.0097 | 0.189 |
| Cc1c(-c2ncnc3[nH]c(-c4ccc(C(=O)N5CCC(O)CC5)cc4)cc23)cccc1N1CCc2cc(C3CC3)ccc2C1=O [Example K-16, 6-cyclopropyl-2-[3-[6-[4-(4-hydroxypiperidine-1-carbonyl)phenyl]-7H-pyrrolo[2,3-d]pyrimidin-4-yl]-2-methyl-phenyl]-3,4-dihydroisoquinolin-1-one] | 0.021 | > 1 |
| Cc1c(-c2ncnc3[nH]c(-c4ccc(C(=O)N5CCNCC5)cc4)cc23)cccc1N1CCc2cc(C3CC3)ccc2C1=O [Example K-19, 6-cyclopropyl-2-[2-methyl-3-[6-[4-(piperazine-1-carbonyl)phenyl]-7H-pyrrolo[2,3-d]pyrimidin-4-yl]phenyl]-3,4-dihydroisoquinolin-1-one] | 0.036 | > 1 |
| Cc1c(-c2ncnc3[nH]c(-c4ccc(C(=O)N5CCC(O)CC5)cc4)cc23)cccc1-n1ncc2cc(C3CC3)ccc2c1=O [Example K-20, 6-cyclopropyl-2-[3-[6-[4-(4-hydroxypiperidine-1-carbonyl)phenyl]-7H-pyrrolo[2,3-d]pyrimidin-4-yl]-2-methyl-phenyl]phthalazin-1-one] | 0.044 | 0.195 |
| NC(=O)c1ccc(-c2cc3c(-c4cccc(N5CCOc6cc(C7CC7)ccc6C5=O)c4CO)ccnc3[nH]2)nc1 [Example K-22, 6-[4-[3-(8-cyclopropyl-5-oxo-2,3-dihydro-1,4-benzoxazepin-4-yl)-2-(hydroxymethyl)phenyl]-1H-pyrrolo[2,3-b]pyridin-2-yl]pyridine-3-carboxamide] | 0.002 | 0.008 |
| CC1(O)CCN(C(=O)c2ccc(-c3cc4c(-c5cccc(N6CCOc7cc(C8CC8)ccc7C6=O)c5CO)ccnc4[nH]3)nc2)CC1 [Example L-1, 8-cyclopropyl-4-[2-(hydroxymethyl)-3-[2-[5-(4-hydroxy-4-methyl-piperidine-1-carbonyl)-2-pyridyl]-1H-pyrrolo[2,3-b]pyridin-4-yl]phenyl]-2,3-dihydro-1,4-benzoxazepin-5-one] | 0.008 | 0.067 |
